PMC7582705, “Structure-Based Discovery of Novel Chemical Classes of Autotaxin Inhibitors” (International Journal of Molecular Sciences, 2020)

Columns and labels:
ATX [1] = target: T1, ATX (Homo sapiens, UniProt Q13822); test: Amplex Red Lyso-phospholipase D assay, human ATX; format: biochemical; parameters: purchased Sino Biological; details: for inhibition at 30 µM: Table S2, at 30uM, read-out: %inhibition at 30uM
Description: All compounds proposed were assessed for their ATX inhibitory activity in vitro using the Amplex Red assay. The Amplex Red Lyso-phospholipase D assay is a fluorometry-based assay providing a sensitive method for measuring Lyso-phospholipase D (ATX) activity in vitro. In this enzyme-coupled assay, ATX activity is monitored indirectly using 10-acetyl-3,7-dihydrophenoxazine (Amplex Red reagent), a sensitive fluorogenic probe for H2O2. ATX initially cleaves the Lysophosphatidylcholine (LPC) substrate to yield choline and Lysophosphatidic acid (LPA), while choline gets subsequently oxidized by choline oxidase to betaine and H2O2. Lastly, H2O2, in the presence of horseradish peroxidase (HRP), reacts with Amplex Red reagent in a 1:1 stoichiometry to generate the highly fluorescent product resorufin.
The inhibition assay was performed as previously described with some modifications in order to accommodate the newly-discovered lag phase in ATX kinetics. To this end, and in order to provide adequate time to the hydrolysis of LPC by ATX, we added a 30min incubation period between ATX, inhibitors and LPC. Briefly, 2 μL of different concentrations of inhibitors diluted in DMSO (Sigma-Aldrich, St. Louis, MO, USA) were incubated with 50 µL of ATX 8 nM (human or mouse ATX from Sino Biological), and 48 µL reaction buffer (50 mM Tris-Cl pH 8.0 from Thermo Fisher Scientific, Waltham, MA, USA and 5 mM CaCl2 from Honeywell-Fluka, Charlotte, NC, USA) in a black 96-well microplate for 15 min at 37 °C. Thence, another 50 µL of reaction buffer with 200 μM LPC substrate 16:0 (Avanti Polar Lipids Inc, Alabaster, AL, USA) ([…]) was added to the reaction mixture and incubated for 30 min at 37 °C in order for ATX to convert LPC to LPA and choline. Finally, 50 µL of working solution containing 200 μM Amplex Red (Invitrogen, Carlsbad, CA, USA), 4 U/mL HRP (Sigma-Aldrich, St. Louis, MO, USA), 0.4 U/mL choline oxidase (Sigma-Aldrich, St. Louis, MO, USA) in 50 mM Tris-HCl pH 8.0 and 5 mM CaCl2 was added to measure the produced choline. The reaction was monitored at 37 °C in a fluorescence plate reader using excitation at 530 nm and reading at 590 nm, every 5 min for 30 min. The velocity of the reaction and the remaining activity of ATX were calculated at the linear phase of the reaction and dose-response inhibition graphs were plotted with GraphPad Software (GraphPad Software, San Diego, CA, USA). […] In order to evaluate a possible effect of the compounds on the second (choline oxidase) and third (HRP) enzymes of the Amplex Red assay, we also performed the assay in the absence of ATX but in the presence of the compounds. Instead of ATX, we added choline chloride at a final concentration of 2 µM so as the second and third steps of the assay could proceed normally.

Solubility (Table S1) = details: YES/NO
ATX [2] = target: T1, ATX; test: IC50 Eleanna (Table S2, method not described); format: biochemical; details: Table S2; read-out: IC50 Eleanna
[3] = recombinant human ATX 2 nM, LPC 16:0 substrate, Amplex Red, read-out: IC50 hATX
[4] = in vitro IC50 (Sino hATX 2nM), Table S2, Sino hATX 2nM

| IC50 (ATX [1]; [3]) [µM] | Solubility (Solubility (Table S1)) | IC50 (ATX [2]) [µM] | IC50 (ATX [1]; [4]) [µM] | also measured | SMILES |
| --- | --- | --- | --- | --- | --- |
| > 100 | YES | – | – | – | Cc1cc(OC(=O)c2c(-c3ccccc3)noc2C)c2cc(F)ccc2n1 [BTB01297, (6-fluoro-2-methylquinolin-4-yl) 5-methyl-3-phenyl-1,2-oxazole-4-carboxylate] |
| > 100 | YES | – | – | – | C(=C1c2ccccc2-c2ccccc21)C(C=C1c2ccccc2-c2ccccc21)c1ccccc1 [BTB11132, 9-[3-(9H-fluoren-9-yliden)-2-phenylpropylidene]-9H-fluorene] |
| > 100 | YES | – | – | – | N#Cc1ccc(-c2c(NC(=O)NS(=O)(=O)c3ccccc3Cl)oc(-c3ccco3)c2C#N)cc1 [CD09529, 2-[({[(2-chlorophenyl)sulphonyl]amino}carbonyl)amino]-4-cyano-3-(4-cyanophenyl)-5-(2-furyl)furan] |
| > 100 | YES | – | – | – | O=C(c1ccc(Sc2ccccc2)c([N+](=O)[O-])c1)N(Cc1ccc2c(c1)OCO2)c1ccc(F)cc1 [DSHS00944, N-(1,,3-benzodioxol-5-ylmethyl)-N-(4-fluorophenyl)-3-nitro-4-,phenylsulfanylbenzamide] |
| – | YES | – | – | – | CCc1nc2c(C)cc(N3CCN(CC(=O)N4CC(O)C4)CC3)cn2c1N(C)c1nc(-c2ccc(F)cc2)c(C#N)s1 [GLPG1690, 2-[[2-ethyl-6-[4-[2-(3-hydroxyazetidin-1-yl)-2-oxoethyl]piperazin-1-yl]-8-methylimidazo[1,2-a]pyridin-3-yl]-methylamino]-4-(4-fluorophenyl)-1,3-thiazole-5-carbonitrile, reference compound] |
| – | YES | – | – | – | O=C1S/C(=C\c2ccc(OCc3ccc(B(O)O)cc3)cc2)C(=O)N1Cc1ccc(F)cc1 [HA155, [4-[[4-[(Z)-[3-[(4-fluorophenyl)methyl]-2,4-dioxo-1,3-thiazolidin-5-ylidene]methyl]phenoxy]methyl]phenyl]boronic acid, reference compound] |
| > 100 | YES | – | – | – | O=c1[nH]nc(-c2ccc(F)cc2)cc1Cc1cn(Cc2ccccc2)c2ccc([N+](=O)[O-])cc12 [HTS01403, 4-[(1-benzyl-5-nitro-1H-indol-3-yl)methyl]-6-(4-fluorophenyl)pyridazin-3(2H)-one] |
| > 100 | YES | – | – | – | O=C(CSc1nc2cc(Cl)ccc2o1)Nc1cc(C(F)(F)F)cc(C(F)(F)F)c1 [HTS01561, N-[3,5-bis(trifluoromethyl)phenyl]-2-[(5-chloro-1,3-benzoxazol-2-yl)thio]acetamide] |
| > 100 | YES | – | – | – | O=S(=O)(Nc1cc(C(F)(F)F)ccc1N1CCc2ccccc2C1)c1cccc2nonc12 [HTS01790, N-[2-(3,4-dihydro-1H-isoquinolin-2-yl)-5-(trifluoromethyl)phenyl]-2,1,,3-benzoxadiazole-7-sulfonamide] |
| > 100 | YES | – | – | – | CC(C)(C)c1ccc(-c2nnc(SCC(=O)c3ccccc3)n2-c2ccc3c(c2)OCO3)cc1 [HTS02043, 2-[[4-(1,3-benzodioxol-5-yl)-5-(4-tert-butylphenyl)-1,2,4-triazol-3-yl]sulfanyl]-1-phenylethanone] |
| > 100 | YES | – | – | – | Cc1ccc(S(=O)(=O)CCSc2n[nH]c(=O)n2-c2ccc(OCc3ccccc3)cc2)cc1 [HTS02873, 4-[4-(benzyloxy)phenyl]-5-({2-[(4-methylphenyl)sulfonyl]ethyl}sulfanyl)-2,4-dihydro-3H-1,2,4-triazol-3-one] |
| > 100 | YES | – | – | – | O=C(c1cccnc1Oc1ccc(Cl)cc1)N1CCN(C2c3ccccc3-c3ccccc32)CC1 [HTS07938, [2-(4-chlorophenoxy)pyridin-3-yl]-[4-(9H-fluoren-9-yl)piperazin-1-yl],methanone] |
| – | – | 5 | 30 | inhibition at 30 µM (ATX [1]): 55.3% | Cc1ccc(S(=O)(=O)n2cc(C=C3C(=O)Nc4ccccc43)c3ccccc32)cc1 [SC-18, 3-[[1-(4-methylphenyl)sulfonylindol-3-yl]methylidene]-1H-indol-2-one] |
| – | – | 4 | > 30 | inhibition at 30 µM (ATX [1]): 18.2% | O=C(Nc1c2c(nn1-c1ccc(F)cc1)C[S+]([O-])C2)c1ccc2ccccc2c1 (stereo not shown) [SC-24, N-[2-(4-fluorophenyl)-5-oxo-4,6-dihydrothieno[3,4-c]pyrazol-3-yl]naphthalene-2-carboxamide] |
| – | – | > 5 | > 30 | – | Cc1ccc(S(=O)(=O)N2CCN3C(=O)c4ccccc4C32c2ccccc2)cc1 (stereo not shown) [SC-26, 1-(4-methylphenyl)sulfonyl-9b-phenyl-2,3-dihydroimidazo[2,1-a]isoindol-5-one] |
| – | – | > 5 | > 30 | – | Cc1ccc(-n2nc3c(c2NC(=O)c2ccc4ccccc4c2)C[S+]([O-])C3)cc1 (stereo not shown) [SC-27, N-[2-(4-methylphenyl)-5-oxo-4,6-dihydrothieno[3,4-c]pyrazol-3-yl]naphthalene-2-carboxamide] |
| – | – | > 5 | > 30 | – | Cc1nc(-c2ccc(NS(=O)(=O)c3ccc4c5c(cccc35)CC4)cc2)cs1 [SC-30, N-[4-(2-methyl-1,3-thiazol-4-yl)phenyl]-1,2-dihydroacenaphthylene-5-sulfonamide] |
| – | – | 5 | > 30 | inhibition at 30 µM (ATX [1]): 16% | O=C(Cn1cnc2ccsc2c1=O)c1c(-c2ccccc2)[nH]c2ccccc12 [SC-34, 3-[2-oxo-2-(2-phenyl-1H-indol-3-yl)ethyl]thieno[3,2-d]pyrimidin-4-one] |
| – | – | > 5 | – | IC50 (ATX [1]; read-out: in vitro IC50 (Sino hATX 2nM), Table S2, Sino hATX 2nM): > 30 µM | CC12N[N+](c3ccccc3)=C(c3ccccc3)C1S(=O)(=O)c1ccccc12 (stereo not shown) [SC-36, 8b-methyl-2,3-diphenyl-1,3a-dihydro-[1]benzothiolo[3,2-c]pyrazol-2-ium 4,4-dioxide] |
| – | – | > 5 | > 30 | – | Cc1ncc(-c2ccc(NS(=O)(=O)c3ccc4c5c(cccc35)CC4)cc2)o1 [SC-37, N-[4-(2-methyl-1,3-oxazol-5-yl)phenyl]-1,2-dihydroacenaphthylene-5-sulfonamide] |
| – | – | > 5 | > 30 | – | CN1C(=O)C(=NNC(=O)c2cc(-c3cccs3)nc3ccccc23)c2ccccc21 [SC-40, N-[(1-methyl-2-oxoindol-3-ylidene)amino]-2-thiophen-2-ylquinoline-4-carboxamide] |
| – | – | 4.53 | > 30 | – | O=C1c2ccccc2-c2ccc(C(=O)N3CCN(C(=O)c4cccs4)CC3)cc21 [SC-42, 2-[4-(thiophene-2-carbonyl)piperazine-1-carbonyl]fluoren-9-one] |
| – | – | > 5 | > 30 | – | Cc1ccc(-n2nc3c(c2NC(=O)c2cccc4ccccc24)CS(=O)(=O)C3)cc1 [SC-43, N-[2-(4-methylphenyl)-5,5-dioxo-4,6-dihydrothieno[3,4-c]pyrazol-3-yl]naphthalene-1-carboxamide] |
| – | – | > 5 | > 30 | – | O=C1NC(=O)C(=Cc2cn(Cc3ccc4ccccc4c3)c3ccccc23)S1 [SC-45, 5-[[1-(naphthalen-2-ylmethyl)indol-3-yl]methylidene]-1,3-thiazolidine-2,4-dione] |
| – | – | 3.4 | > 30 | inhibition at 30 µM (ATX [1]): 38.6% | Cc1ccccc1-n1nc2c(c1NC(=O)c1ccc3ccccc3c1)CS(=O)(=O)C2 [SC-47, N-[2-(2-methylphenyl)-5,5-dioxo-4,6-dihydrothieno[3,4-c]pyrazol-3-yl]naphthalene-2-carboxamide] |
